Like-named read-outs stand apart in the source and are kept apart here.
Legend:
HCV replicon cells = assay: HCV replicon FRET / luciferase assay; assay type: cell-based, Hepatitis C virus
Protocol: The HCV FRET screening assay was performed in 96-well cell culture plates. The FRET peptide (Anaspec, Inc.) (Taliani et al., Anal. Biochem. 1996, 240, 60-67) contains a fluorescence donor, EDANS, near one end of the peptide and an acceptor, DABCYL, near the other end. The fluorescence of the peptide is quenched by […] resonance energy transfer (RET) between the donor and the acceptor, but as the NS3 protease cleaves the peptide the products are released from RET quenching and the fluorescence of the donor becomes apparent. The assay reagent was made as follows: 5× cell Luciferase cell culture lysis reagent from Promega (#E153A) diluted to 1× with dH2O, NaCl added to 150 mM final, the FRET peptide diluted to 20 μM final from a 2 mM stock.
To prepare plates, HCV replicon cells, with or without a Renilla luciferase reporter gene, were trypsinized and plated in a 96-well plate with titrated test compounds added in columns 3 through 12; columns 1 and 2 contained a control compound (HCV control inhibitor), and the bottom row contained cells with DMSO only. The plates were then placed in a CO2 incubator at 37° C.
Subsequent to addition of the test compounds described above (FRET Assay Preparation), at various times the plate was removed and Alamar blue solution (Trek Diagnostics, #00-100) was added to measure cellular toxicity. After reading in a Cytoflour 4000 instrument (PE Biosystems), plates were rinsed with PBS and then used for FRET assay by the addition of 30 ul of the FRET peptide assay reagent described above (FRET Assay Preparation) per well. The plate was then placed into the Cytoflour 4000 instrument which had been set to 340 excite/490 emission, automatic mode for up to 20 cycles and the plate read in a kinetic mode. Typically, the signal to noise using an endpoint analysis after the reads was at least three-fold. Alternatively, after Alamar blue reading, plates were rinsed with PBS, then used for luciferase assay using the Promega Dual-Glo Luciferase Assay System or the Promega EnduRen Live Cell Substrate assay.
Compound analysis was performed by quantification of the relative HCV replicon inhibition and the relative cytotoxicity values. To calculate cytoxicity values, the average Alamar Blue fluorescence signals from the control wells were set as 100% non-toxic. The individual signals in each of the compound test wells were then divided by the average control signal and multiplied by 100% to determine […]. To calculate the HCV replicon inhibition values, an average background value was obtained from the two wells containing the highest amount of HCV control inhibitor at the end of the assay period. These numbers were similar to those obtained from naïve Huh-7 cells. The background numbers were then subtracted from the average signal obtained from the control wells and this number was used as 100% activity. The individual signals in each of the compound test wells were then divided by the averaged control values after background subtraction and multiplied by 100% to determine percent activity. […] The two numbers generated for the compound plate, percent cytoxicity and percent activity, were used to determine compounds of interest for further analysis.

[1] = molecular target: T1, HCV NS5B RdRp genotype 1b (Hepatitis C virus genotype 1b, UniProt Q9WMX2); assay: HCV NS5B RdRp enzyme assay (standard / modified); assay type: biochemical
T1 construct: The protein was expressed with an 18 amino acid C-terminal truncation to enhance the solubility; made in house; host or cells: E. coli BL21(DE3), pET21a vector
T1 sequence (Q9WMX2 2420-2992): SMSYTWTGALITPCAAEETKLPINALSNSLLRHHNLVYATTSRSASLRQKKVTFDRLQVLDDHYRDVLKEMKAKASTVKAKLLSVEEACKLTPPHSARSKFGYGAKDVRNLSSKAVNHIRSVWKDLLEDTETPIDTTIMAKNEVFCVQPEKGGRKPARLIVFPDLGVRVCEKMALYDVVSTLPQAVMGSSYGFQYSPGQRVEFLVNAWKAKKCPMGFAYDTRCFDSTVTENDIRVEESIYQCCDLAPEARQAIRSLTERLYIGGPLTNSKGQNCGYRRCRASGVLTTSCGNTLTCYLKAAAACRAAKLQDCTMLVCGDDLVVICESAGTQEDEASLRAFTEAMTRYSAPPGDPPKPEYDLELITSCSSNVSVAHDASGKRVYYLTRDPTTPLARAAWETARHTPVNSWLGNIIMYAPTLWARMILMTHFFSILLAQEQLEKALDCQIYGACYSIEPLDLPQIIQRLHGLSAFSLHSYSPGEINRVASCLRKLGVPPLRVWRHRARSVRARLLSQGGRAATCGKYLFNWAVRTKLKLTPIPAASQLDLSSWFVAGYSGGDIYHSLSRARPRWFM
Protocol: HCV NS5B RdRp Cloning, Expression, and Purification.
The cDNA encoding the NS5B protein of HCV, genotype 1b, was cloned into the pET21a expression vector. The protein was expressed with an 18 amino acid C-terminal truncation to enhance the solubility. The E. coli competent cell line BL21(DE3) was used for expression of the protein. Cultures were grown at 37° C. for ˜4 hours until the cultures reached an optical density of 2.0 at 600 nm. The cultures were cooled to 20° C. and induced with 1 mM IPTG. Fresh ampicillin was added to a final concentration of 50 μg/ml and the cells were grown overnight at 20° C.
The lysis buffer consisted of 20 mM Tris-HCl, pH 7.4, 500 mM NaCl, 0.5% triton X-100, 1 mM DTT, 1 mM EDTA, 20% glycerol, 0.5 mg/ml lysozyme, 10 mM MgCl2, 15 ug/ml deoxyribonuclease I, and Complete TM protease inhibitor tablets (Roche). After addition of the lysis buffer, frozen cell pellets were resuspended using a tissue homogenizer. To reduce the viscosity of the sample, aliquots of the lysate were sonicated on ice using a microtip attached to a Branson sonicator. The sonicated lysate was centrifuged at 100,000×g for 1 hr at 4° C. and filtered through a 0.2 μm filter unit (Corning).
The protein was purified using two sequential chromatography steps: Heparin sepharose CL-6B and polyU sepharose 4B (Pharmacia). The chromatography buffers were identical to the lysis buffer but contained no lysozyme, deoxyribonuclease I, MgCl2 or protease inhibitor and the NaCl concentration of the buffer was adjusted according to the requirements for charging the protein onto the column. Each column was eluted with a NaCl gradient which varied in length from 5-50 column volumes depending on the column type. […] The enzyme was aliquoted and stored at −80° C.
Standard HCV NS5B RdRp Enzyme Assay.
HCV RdRp genotype 1b assays were run in a final volume of 60 μl in 96 well plates (Corning 3600). The assay buffer is composed of 20 mM Hepes, pH 7.5, 2.5 mM KCl, 2.5 mM MgCl2, 1 mM DTT, 1.6 U RNAse inhibitor (Promega N2515), 0.01 mg/ml BSA (Sigma B6917), and 2% glycerol. All compounds were serially diluted (3-fold) in DMSO and diluted further in water such that the final concentration of DMSO in the assay was 2%. HCV RdRp genotype 1b enzyme was used at a final concentration of 28 nM. A polyA template was used at 6 nM, and a biotinylated oligo-dT12 primer was used at 180 nM final concentration. Template was obtained commercially (Amersham 27-4110). Biotinylated primer was prepared by Sigma Genosys. 3H-UTP was used at 0.6 μCi (0.29 μM total UTP). Reactions were initiated by the addition of enzyme, incubated at 30° C. for 60 min, and stopped by adding 25 μl of 50 mM EDTA containing SPA beads (4 μg/μl, Amersham RPNQ 0007). Plates were read on a Packard Top Count NXT after >1 hr incubation at room temperature.
Modified HCV NS5B RdRp Enzyme Assay.
A modified enzyme assay was performed essentially as described for the standard enzyme assay except for the following: The biotinylated oligo dT12 primer was precaptured on streptavidin-coated SPA beads by mixing primer and beads in assay buffer and incubating at room temperature for one hour. Unbound primer was removed after centrifugation. The primer-bound beads were resuspended in 20 mM Hepes buffer, pH 7.5 and used in the assay at final concentrations of 20 nM primer and 0.67 μg/μl beads. Order of addition in the assay: enzyme (1.75 nM) was added to diluted compound followed by the addition of a mixture of template (0.36 nM), 3H-UTP (0.6 μCi, 0.29 μM), and primer-bound beads, to initiate the reaction; concentrations given are final. Reactions were allowed to proceed for 4 hours at 30° C.
IC50 values for compounds were determined using seven different [I].

[2] = HCV replicon cells, FRET or luciferase activity
[3] = HCV NS5B RdRp genotype 1b enzyme
[4] = Hepatitis C virus, HCV replicon cells, FRET or luciferase activity, read-out: EC50

Structure (SMILES) | EC50 (HCV replicon cells; Hepatitis C virus) [nM] | IC50 [1] [nM] | other results
COc1ccc2c(c1)C1CC1(C(=O)N1C3CCC1CN(C)C3)Cn1c-2c(C2CCCCC2)c2ccc(C(=O)NS(=O)(=O)N(C)C(C)C)cc21 (stereo not drawn) [drawing 111] |  |  | EC50 (HCV replicon cells; [2]): 1 to 500 nM; IC50 [1, 3]: 1 to 500 nM
CCCS(=O)(=O)NC(=O)c1ccc2c(C3CCCCC3)c3n(c2c1)CC1(C(=O)N2C4CCC2CN(C)C4)CC1c1cc(OC)ccc1-3 (stereo not drawn) | 1 to 500 |  | 
COc1ccc2c(c1)C1CC1(C(=O)N1C3CCC1CN(C)C3)Cn1c-2c(C2CCCCC2)c2ccc(C(=O)NS(=O)(=O)CC(F)(F)F)cc21 (stereo not drawn) | 1 to 500 |  | 
COc1ccc2c(c1)C1CC1(C(=O)N1[C@@H]3CC[C@H]1CN(S(C)(=O)=O)C3)Cn1c-2c(C2CCCCC2)c2ccc(C(=O)NS(=O)(=O)N(C)C)cc21 (stereo partly drawn) | 1 to 500 | 1 to 500 | 
COc1ccc2c(c1)C1CC1(C(=O)N1C3CCC1CN(C(C)=O)C3)Cn1c-2c(C2CCCCC2)c2ccc(C(=O)NS(=O)(=O)N(C)C)cc21 (stereo not drawn) [drawing 60] |  |  | EC50 (HCV replicon cells; [2]): 1 to 500 nM; IC50 [1, 3]: 1 to 500 nM
COc1ccc2c(c1)C1CC1(C(=O)N1C3CCC1CN(C)C3)Cn1c-2c(C2CCCCC2)c2ccc(C(=O)NS(=O)(=O)N3CCC3)cc21 (stereo not drawn) [drawing 101] | 1 to 500 | 1 to 500 | 
COc1ccc2c(c1)C1CC1(C(=O)N1C3CCC1CN(C)C3)Cn1c-2c(C2CCCCC2)c2ccc(C(=O)NS(=O)(=O)N3C[C@@H](C)O[C@@H](C)C3)cc21 (stereo partly drawn) [drawing 94] | 1 to 500 | 1 to 500 | 
CCC(C)S(=O)(=O)NC(=O)c1ccc2c(C3CCCCC3)c3n(c2c1)CC1(C(=O)N2C4CCC2CN(C)C4)CC1c1cc(OC)ccc1-3 (stereo not drawn) | 1 to 500 |  | 
COc1ccc2c(c1)C1CC1(C(=O)N1C3CCC1CN(Cc1ccccc1)C3)Cn1c-2c(C2CCCCC2)c2ccc(C(=O)NS(=O)(=O)N(C)C)cc21 (stereo not drawn) [drawing 58] |  |  | EC50 (HCV replicon cells; [2]): 1 to 500 nM; IC50 [1, 3]: 1 to 500 nM
COc1ccc2c(c1)[C@@H]1CC1[C@@H](C(=O)N1C3CCC1CN(C)C3)n1c-2c(C2CCCCC2)c2ccc(C(=O)N(C)S(=O)(=O)N(C)C)cc21 (stereo partly drawn) | > 40 | > 500 | 
COc1ccc2c(c1)C1CC1(C(=O)NC1CC3CCC(C1)N3C)Cn1c-2c(C2CCCCC2)c2ccc(C(=O)NS(=O)(=O)N(C)C)cc21 (stereo not drawn) [drawing 39] | 1 to 500 | 1 to 500 | 
CCN(CC)C(=O)N1CC2CCC(C1)N2C(=O)C12CC1c1cc(OC)ccc1-c1c(C3CCCCC3)c3ccc(C(=O)NS(=O)(=O)N4CCN(C)CC4)cc3n1C2 (stereo not drawn) [drawing 106] |  |  | EC50 (HCV replicon cells; [2]): 1 to 500 nM; IC50 [1, 3]: 1 to 500 nM
COc1ccc2c(c1)[C@@H]1CC1(C(=O)N1C3CCC1CN(C)C3)Cn1c-2c(C2CCCCC2)c2ccc(C(=O)NS(=O)(=O)CC(C)C)cc21 (stereo partly drawn) |  | 1 to 500 | EC50 (HCV replicon cells; [4]): 1 to 500 nM
COc1ccc2c(c1)C1CC1(C(=O)N1C3CCC1CN(C)C3)Cn1c-2c(C2CCCCC2)c2ccc(C(=O)NS(N)(=O)=O)cc21 (stereo not drawn) [drawing 38] | 1 to 500 | 1 to 500 | 
COc1ccc2c(c1)C1CC1(C(=O)N1C3CCC1CN(C)C3)Cn1c-2c(C2CCCCC2)c2ccc(C(=O)NS(=O)(=O)NC3CC3)cc21 (stereo not drawn) [drawing 68] |  |  | EC50 (HCV replicon cells; [2]): 1 to 500 nM; IC50 [1, 3]: 1 to 500 nM
COc1ccc2c(c1)C1CC1(C(=O)N1C3CCC1CN(C)C3)Cn1c-2c(C2CCCCC2)c2ccc(C(=O)NS(=O)(=O)N(C)C)cc21 (stereo not drawn) [drawing 46] |  |  | EC50 (HCV replicon cells; [4]): 1 to 500 nM; IC50 ([1]; HCV NS5B RdRp genotype 1b enzyme, read-out: IC50): 1 to 500 nM
COc1ccc2c(c1)[C@H]1C[C@@]1(C(=O)N1C3CCC1CN(C)C3)Cn1c-2c(C2CCCCC2)c2ccc(C(=O)NS(=O)(=O)C(C)C)cc21 | 1 to 500 |  | 
CN1CC2CCC(C1)N2C(=O)C12CC1c1ccccc1-c1c(C3CCCCC3)c3ccc(C(=O)NS(=O)(=O)N(C)C)cc3n1C2 (stereo not drawn) | 1 to 500 |  | 
COc1ccc2c(c1)C1CC1(C(=O)N1C3CCC1CN(C)C3)Cn1c-2c(C2CCCCC2)c2ccc(C(=O)NS(=O)(=O)C(C)(C)C)cc21 (stereo not drawn) | 1 to 500 |  | 
COc1ccc2c(c1)C1CC1(C(=O)N1C3CCC1CN(C)C3)Cn1c-2c(C2CCCCC2)c2ccc(C(=O)NS(=O)(=O)CC(C)C)cc21 (stereo not drawn) |  |  | EC50 (HCV replicon cells; [4]): 1 to 500 nM
COc1ccc2c(c1)C1CC1(C(=O)N1C3CCC1CN(C)C3)Cn1c-2c(C2CCCCC2)c2ccc(C(=O)NS(=O)(=O)C(C)C)cc21 (stereo not drawn) | 1 to 500 |  | 
COc1ccc2c(c1)[C@@H]1C[C@]1(C(=O)N1C3CCC1CN(C)C3)Cn1c-2c(C2CCCCC2)c2ccc(C(=O)NS(=O)(=O)C(C)C)cc21 | 1 to 500 |  | 
CC(C)S(=O)(=O)NC(=O)c1ccc2c(C3CCCCC3)c3n(c2c1)CC1(C(=O)N2C4CCC2CN(C)C4)CC1c1ccccc1-3 (stereo not drawn) [drawing 131] |  |  | EC50 (HCV replicon cells; [2]): 1 to 500 nM
COC(=O)c1ccc2c(C3CCCCC3)c3n(c2c1)CC1(C(=O)N2C4CCC2CN(C)C4)CC1c1c(OC)cccc1-3 (stereo not drawn) |  | > 500 | 
CC(C)S(=O)(=O)NC(=O)c1ccc2c(C3CCCCC3)c3n(c2c1)CC1(C(=O)N2C4CCC2CN(C)C4)CC1c1ccccc1-3 (stereo not drawn) [drawing 126] | 1 to 500 |  | 
COc1ccc2c(c1)C1CC1(C(=O)N1C3CCC1CN(C)C3)Cn1c-2c(C2CCCCC2)c2ccc(C(=O)NS(=O)(=O)C3CCCC3)cc21 (stereo not drawn) | 1 to 500 |  | 
COc1ccc2c(c1)C1CC1(C(=O)N1C3CCC1CN(C)C3)Cn1c-2c(C2CCCCC2)c2ccc(C(=O)NS(=O)(=O)CCC(F)(F)F)cc21 (stereo not drawn) | 1 to 500 |  | 
CC(C)S(=O)(=O)NC(=O)c1ccc2c(C3CCCCC3)c3n(c2c1)CC1(C(=O)N2C4CCC2CN(C)C4)CC1c1ccccc1-3 (stereo not drawn) [drawing 130] |  |  | EC50 (HCV replicon cells; [2]): 1 to 500 nM
COC(=O)c1ccc2c(C3CCCCC3)c3n(c2c1)CC1(C(=O)N2C4CCC2CN(C)C4)CC1c1c(OC(F)(F)F)cccc1-3 (stereo not drawn) |  | > 500 | 

Reference: US20130171098A1, “Cyclopropyl Fused Indolobenzazepine HCV NS5B Inhibitors” (priority 2006, published 2013)
